System: allodynia induced by constriction of the sciatic nerve
Experiment: allodynia induced by chronic constriction of the sciatic nerve (von Frey hairs)
Assay type: in vivo, rat
Details: for paw withdrawal threshold (allodynia), BM: before surgery; for paw withdrawal threshold (allodynia), FM 1 h: day 14, 1 h after peptide; for paw withdrawal threshold (allodynia), FM 3 h: day 14, 3 h after peptide; for paw withdrawal threshold (allodynia), FM 24 h: day 14, 24 h after peptide; for paw withdrawal threshold (allodynia), FM 48 h: day 14, 48 h after peptide; for paw withdrawal threshold (allodynia), FM 72 h: day 14, 72 h after peptide; for paw withdrawal threshold (allodynia), FM 96 h: day 14, 96 h after peptide; for paw withdrawal threshold (allodynia), IM: day 14 after surgery, before peptide
Description: For the induction of neuropathic pain, surgery was performed in the sciatic nerve, in accordance with the method described by Bennett, G. J and Xie, Y. K. (Pain, 33:87-107, 1988). The animals were anesthetized with halothane. The sciatic nerve was exposed in the middle region of the thigh, moving away the femoral biceps muscle. Close to the trifurcation of the sciatic nerve, 7 mm of distance from the trifurcation, 4 loose ligations were performed (chromed catgut 4-0) around it, distant from each other in approximately 1 mm. The bindings were performed along the nerve, up to 4-5 mm from the initial point. The incision was sutured in layers, using silk suture thread number 4-0.
Allodynia was evaluated for quantitative testing, in response to tactile stimulus applied to the paws of the rat, according to the method described by Chaplan el al. (1994), modified. In this test, the rats were placed, individually, in plastic cages, with meshed wire at the bottom, to allow access to the paws of these animals. Briefly, a logarithmic series of 10 calibrated Semmes-Weinstein monofilaments (von Frey hairs, Aesthesiometer Semmer-Weinstein, Stoelting Co., E.U.A) was applied to the right hind paw to determine the stimulus intensity threshold stiffness required to elicit a paw withdrawal response. Log stiffness of the hairs is determined by log 10 (mg×10) having the following values (the value in grams is between parenthesis): 3.61 (0.407 g); 3.84 (0.692 g); 4.08 (1.202 g); 4.17 (1.479 g); 4.31 (2.041 g); 4.56 (3.630 g); 4.74 (5.495 g); 4.93 (8.511 g); 5.07 (11.749 g) and 5.18 (15.136 g). It is important to point out that the filaments with weight greater than 15.136 g were not employed in the studies of allodynia.
The filaments were applied, one by one, perpendicularly, under the plantar area of both hind paws and maintained for a period of 8 seconds. The filament capable of eliciting the withdrawal of the paw, two consecutive times, was considered as the force in grams necessary to elicit the response (100% of response). In the absence of a response to the greater stimulus (15.135 g), this filament was considered as cut value.
The behavioral responses were used to calculate the 50% paw withdrawal threshold (absolute threshold), by fitting a gaussian integral psychometric function, using a maximum-likelihood fitting method. This fitting method allows parametric analyses.
The period of the application of the test and the treatments were the same as those used for determination of hyperalgesia (Table 12).
The results were analyzed by comparing the means of the basal and initial measurements or, when determined, by comparing the means obtained in the different experimental groups.
For this purpose, the animals were treated with CTOP, a specific μ receptor antagonist (20 μg/paw), nor-BNI, a specific κ receptor antagonist (50 μg/paw) or with ICI 174,864, a specific δ receptor antagonist (10 μg/paw). The antagonists were injected, by intraplantar route. The peptide was administered in the dose of 5 μg/kg, orally, immediately before the injection of the opioid antagonists.
The results were analyzed comparing the mean values of the basal and initial measurements, or of the initial and final measurements or, when determined, by comparing the mean values obtained in the different experimental groups (Tables 15 and 16).

## Xaa-Phe-Ser-Pro-Glu-Asn-Cys-Gln-Gly-Glu-Ser-Gln-Pro-Cys [SEQ ID NO: 2]
0.0016 μg/kg p.o.
  paw withdrawal threshold (allodynia), BM: 5.02 ± 0.03 log 10 (mg × 10)
  paw withdrawal threshold (allodynia), FM 1 h: 4.22 ± 0.00 log 10 (mg × 10)
  paw withdrawal threshold (allodynia), FM 3 h: 4.22 ± 0.00 log 10 (mg × 10)
  paw withdrawal threshold (allodynia), FM 24 h: 4.22 ± 0.00 log 10 (mg × 10)
  paw withdrawal threshold (allodynia), FM 48 h: 4.22 ± 0.00 log 10 (mg × 10)
  paw withdrawal threshold (allodynia), FM 72 h: 4.22 ± 0.00 log 10 (mg × 10)
  paw withdrawal threshold (allodynia), FM 96 h: 4.22 ± 0.00 log 10 (mg × 10)
  paw withdrawal threshold (allodynia), IM: 4.22 ± 0.00 log 10 (mg × 10)
0.008 μg/kg p.o.
  paw withdrawal threshold (allodynia), BM: 4.99 ± 0.02 log 10 (mg × 10)
  paw withdrawal threshold (allodynia), FM 1 h: 4.22 ± 0.00 log 10 (mg × 10)
  paw withdrawal threshold (allodynia), FM 3 h: 4.22 ± 0.00 log 10 (mg × 10)
  paw withdrawal threshold (allodynia), FM 24 h: 4.22 ± 0.00 log 10 (mg × 10)
  paw withdrawal threshold (allodynia), FM 48 h: 4.22 ± 0.00 log 10 (mg × 10)
  paw withdrawal threshold (allodynia), FM 72 h: 4.22 ± 0.00 log 10 (mg × 10)
  paw withdrawal threshold (allodynia), FM 96 h: 4.22 ± 0.00 log 10 (mg × 10)
  paw withdrawal threshold (allodynia), IM: 4.22 ± 0.00 log 10 (mg × 10)
0.04 μg/kg p.o.
  paw withdrawal threshold (allodynia), BM: 4.97 ± 0.99 log 10 (mg × 10)
  paw withdrawal threshold (allodynia), FM 1 h: 4.22 ± 0.00 log 10 (mg × 10)
  paw withdrawal threshold (allodynia), FM 3 h: 4.22 ± 0.00 log 10 (mg × 10)
  paw withdrawal threshold (allodynia), FM 24 h: 4.22 ± 0.00 log 10 (mg × 10)
  paw withdrawal threshold (allodynia), FM 48 h: 4.26 ± 0.04 log 10 (mg × 10)
  paw withdrawal threshold (allodynia), FM 72 h: 4.22 ± 0.00 log 10 (mg × 10)
  paw withdrawal threshold (allodynia), FM 96 h: 4.22 ± 0.00 log 10 (mg × 10)
  paw withdrawal threshold (allodynia), IM: 4.22 ± 0.00 log 10 (mg × 10)
0.2 μg/kg p.o.
  paw withdrawal threshold (allodynia), BM: 5.03 ± 0.02 log 10 (mg × 10)
  paw withdrawal threshold (allodynia), FM 1 h: 4.41 ± 0.00 log 10 (mg × 10)
  paw withdrawal threshold (allodynia), FM 3 h: 4.41 ± 0.00 log 10 (mg × 10)
  paw withdrawal threshold (allodynia), FM 24 h: 4.41 ± 0.00 log 10 (mg × 10)
  paw withdrawal threshold (allodynia), FM 48 h: 4.41 ± 0.00 log 10 (mg × 10)
  paw withdrawal threshold (allodynia), FM 72 h: 4.41 ± 0.00 log 10 (mg × 10)
  paw withdrawal threshold (allodynia), FM 96 h: 4.22 ± 0.00 log 10 (mg × 10)
  paw withdrawal threshold (allodynia), IM: 4.22 ± 0.00 log 10 (mg × 10)
1 μg/kg p.o.
  paw withdrawal threshold (allodynia), BM: 5.06 ± 0.02 log 10 (mg × 10)
  paw withdrawal threshold (allodynia), FM 1 h: 4.62 ± 0.00 log 10 (mg × 10)

Reference: US9109041B2, “Analog compounds of analgesic peptides derived from the venom of crotalus durissus terrificus snakes, their uses, compositions, methods of preparation and purification” (priority 2004, dated 2015)
